Key:
human orexin receptor 2 = human orexin receptor 2 (Homo sapiens (Human), UniProt O43614); assay: Orexin antagonist activity, intracellular calcium FLIPR assay (orexin receptor 2); assay type: cell-based; conditions: RBL-2H3 cells stably expressing human orexin receptor 2; Ca2+ dye FLIPR; compound 15 minutes before orexin-A at approximately 80% maximal response; read-out: Human Orexin2R IC50
Description: (§1) Orexin antagonist activity was determined by measuring changes in intracellular calcium levels using a Ca^2+ sensitive fluorescent dye. The changes in fluorescent signal were monitored by Fluorescent Imaging Plate Reader (FLIPR™) technology available from Molecular Devices, LLC, U.S.A. Orexin mediated increases in intracellular Ca^2+ concentration were readily detected upon activation with orexin-A. Twenty-four hours prior to the assay, RBL-2H3 cells stably expressing either human orexin receptor 1 or human orexin receptor 2 were seeded in cell culture medium in black, clear-bottom 384-well plates (commercially available from Corning Inc., U.S.A.) and grown overnight at 37° C., 5% CO2. On the day of the assay, cell culture media was removed and cells were loaded with Calcium 5 Dye (commercially sold by Molecular Devices, LLC, U.S.A.) for 1 hour at 37° C., 5% CO2. Test compounds (at 10 point half log concentration response curves from 10 μM) were added to cells for 15 minutes prior to the addition of orexin-A to all wells, to achieve a final concentration that produces approximately an 80% maximal response. The IC50 values were determined from ten point concentration response curves. Curves were generated using the average of two wells for each data point.

human orexin receptor 1 = human orexin receptor 1 (Homo sapiens (Human), UniProt O43613); assay: Orexin antagonist activity, intracellular calcium FLIPR assay (orexin receptor 1); assay type: cell-based; conditions: RBL-2H3 cells stably expressing human orexin receptor 1; Ca2+ dye FLIPR; compound 15 minutes before orexin-A at approximately 80% maximal response; read-out: Human Orexin1R IC50
Chain of human orexin receptor 1 (O43613 whole entry): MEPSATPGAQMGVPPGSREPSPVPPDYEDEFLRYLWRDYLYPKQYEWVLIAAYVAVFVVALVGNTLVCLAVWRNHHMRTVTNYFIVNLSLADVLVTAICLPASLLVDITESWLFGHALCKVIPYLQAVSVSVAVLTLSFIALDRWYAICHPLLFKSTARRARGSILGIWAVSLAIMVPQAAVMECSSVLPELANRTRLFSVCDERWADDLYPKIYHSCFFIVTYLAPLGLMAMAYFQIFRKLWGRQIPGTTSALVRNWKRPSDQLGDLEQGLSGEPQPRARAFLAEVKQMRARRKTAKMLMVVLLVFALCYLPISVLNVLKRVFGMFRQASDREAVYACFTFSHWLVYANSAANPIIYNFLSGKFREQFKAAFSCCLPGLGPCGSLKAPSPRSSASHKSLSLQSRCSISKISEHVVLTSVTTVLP
Description: as §1

Chain of human orexin receptor 2 (O43614 whole entry): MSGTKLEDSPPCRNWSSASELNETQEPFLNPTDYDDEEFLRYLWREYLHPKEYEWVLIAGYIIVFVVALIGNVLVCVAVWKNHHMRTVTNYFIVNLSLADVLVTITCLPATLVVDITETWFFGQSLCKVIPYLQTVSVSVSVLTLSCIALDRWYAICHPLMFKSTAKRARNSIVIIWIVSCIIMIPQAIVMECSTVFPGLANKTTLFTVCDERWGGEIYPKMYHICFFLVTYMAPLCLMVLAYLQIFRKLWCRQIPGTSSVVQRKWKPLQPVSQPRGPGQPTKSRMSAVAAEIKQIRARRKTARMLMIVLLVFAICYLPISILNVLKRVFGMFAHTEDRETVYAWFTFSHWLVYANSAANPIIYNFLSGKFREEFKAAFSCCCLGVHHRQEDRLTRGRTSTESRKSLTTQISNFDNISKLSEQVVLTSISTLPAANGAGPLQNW

Row | IC50 (human orexin receptor 2) [nM] | IC50 (human orexin receptor 1) [nM] | SMILES
1 | 6300 | 110 | COc1cccc(F)c1C(=O)N[C@H]1CCC[C@@H]1Nc1nc2ccc(F)cc2s1 [Example 46, 2-Fluoro-N-[(1S,2S)-2-[(6-fluoro-1,3-benzothiazol-2-yl)amino]cyclopentyl]-6-methoxybenzamide]
2 | > 10000 | 150 | O=C(N[C@H]1CCC[C@@H]1Nc1nc2ccc(F)cc2s1)c1c(F)cccc1F [Example 47, 2,6-Difluoro-N-[(1S,2S)-2-[(6-fluoro-1,3-benzothiazol-2-yl)amino]-cyclopentyl]benzamide]
3 | 3700 | 160 | O=C(N[C@H]1CCC[C@@H]1Nc1nc2ccc(F)cc2s1)c1ccccc1F [Example 48, 2-Fluoro-N-[(1S,2S)-2-[(6-fluoro-1,3-benzothiazol-2-yl)amino]cyclopentyl]-benzamide]
4 | 1400 | 190 | CCOc1ccccc1C(=O)N[C@H]1CCC[C@@H]1Nc1nc2ccc(F)cc2s1 [Example 49, 2-Ethoxy-N-[(1S,2S)-2-[(6-fluoro-1,3-benzothiazol-2-yl)amino]cyclopentyl]-benzamide]
5 | 3400 | 190 | COc1ccccc1C(=O)N[C@H]1CCC[C@@H]1Nc1nc2ccc(F)cc2s1 [Example 50, N-[(1S,2S)-2-[(6-Fluoro-1,3-benzothiazol-2-yl)amino]cyclopentyl]-2-methoxybenzamide]
6 | 3300 | 280 | COc1ccc(F)cc1C(=O)N[C@H]1CCC[C@@H]1Nc1nc2ccc(F)cc2s1 [Example 53, 5-Fluoro-N-[(1S,2S)-2-[(6-fluoro-1,3-benzothiazol-2-yl)amino]cyclopentyl]-2-methoxybenzamide]
7 | 3500 | 310 | COc1c(F)cccc1C(=O)N[C@H]1CCC[C@@H]1Nc1nc2ccc(F)cc2s1 [Example 54, 3-Fluoro-N-[(1S,2S)-2-[(6-fluoro-1,3-benzothiazol-2-yl)amino]cyclopentyl]-2-methoxybenzamide]
8 | 6700 | 11 | O=C(N[C@H]1CCC[C@@H]1Nc1nc2ccc(F)cc2s1)c1ccccc1-n1nccn1 [Example 59, N-[(1S,2S)-2-[(6-Fluoro-1,3-benzothiazol-2-yl)amino]cyclopentyl]-2-(2H-1,2,3-triazol-2-yl)benzamide]
9 | 4200 | 48 | Cc1ccc(-n2nccn2)c(C(=O)NC2CCCC2Cc2cnc3ccccc3n2)c1 (centres unmarked) [Example 63, 5-Methyl-N-[2-(quinoxalin-2-ylmethyl)cyclopentyl]-2-(2H-1,2,3-triazol-2-yl)benzamide]
10 | > 10000 | 50 | COc1cccc(OC)c1C(=O)N[C@H]1CCC[C@@H]1Nc1nc2ccc(F)cc2o1 [Example 66, N-[(1S,2S)-2-[(6-Fluoro-1,3-benzoxazol-2-yl)amino]cyclopentyl]-2,6-dimethoxybenzamide]
11 | 6500 | 110 | COc1ccc(C)cc1C(=O)N[C@H]1CCC[C@@H]1Nc1nc2ccc(F)cc2s1 [Example 67, N-[(1S,2S)-2-[(6-Fluoro-1,3-benzothiazol-2-yl)amino]cyclopentyl]-2-methoxy-5-methylbenzamide]
12 | > 10000 | 320 | Cc1cccc(C)c1C(=O)N[C@H]1CCC[C@@H]1Nc1nc2ccc(F)cc2s1 [Example 68, N-[(1S,2S)-2-[(6-Fluoro-1,3-benzothiazol-2-yl)amino]cyclopentyl]-2,6-dimethylbenzamide]
13 | 3200 | 15 | O=C(N[C@H]1CCC[C@@H]1Nc1nc2ccc(F)cc2s1)c1c(F)cccc1-n1nccn1 [Example 69, 2-Fluoro-N-[(1S,2S)-2-[(6-fluoro-1,3-benzothiazol-2-yl)amino]cyclopentyl]-6-(2H-1,2,3-triazol-2-yl)benzamide]
14 | > 10000 | 38 | O=C(N[C@H]1CCC[C@@H]1Nc1nc2ccc(F)cc2s1)c1c(F)cccc1Cl [Example 70, 2-Chloro-6-fluoro-N-[(1S,2S)-2-[(6-fluoro-1,3-benzothiazol-2-yl)amino]cyclopentyl]benzamide]
15 | 4200 | 24 | O=C(N[C@H]1CCC[C@@H]1Nc1nc2ccc(F)cc2s1)c1c(Cl)cccc1-n1nccn1 [Example 71, 2-Chloro-N-[(1S,2S)-2-[(6-fluoro-1,3-benzothiazol-2-yl)amino]cyclopentyl]-6-(2H-1,2,3-triazol-2-yl)benzamide]
16 | > 10000 | 14 | Cc1nnc(-c2ccccc2C(=O)N[C@H]2CCC[C@@H]2Nc2nc3ccc(F)cc3s2)o1 [Example 72, N-[(1S,2S)-2-[(6-Fluoro-1,3-benzothiazol-2-yl)amino]cyclopentyl]-2-(5-methyl-1,3,4-oxadiazol-2-yl)benzamide]

Row | IC50 (human orexin receptor 2) [nM] | IC50 (human orexin receptor 1) [nM] | SMILES
17 | > 10000 | 35 | O=C(N[C@H]1CCC[C@@H]1Nc1nc2ccc(F)cc2s1)c1ccccc1-n1ccnn1 [Example 73, N-[(1S,2S)-2-[(6-Fluoro-1,3-benzothiazol-2-yl)amino]cyclopentyl]-2-(1H-1,2,3-triazol-1-yl)benzamide]
18 | 2100 | 38 | O=C(N[C@H]1CCC[C@@H]1Nc1nc2ccc(F)cc2s1)c1cc(Cl)ccc1-n1cccn1 [Example 74, 5-Chloro-N-[(1S,2S)-2-[(6-fluoro-1,3-benzothiazol-2-yl)amino]cyclopentyl]-2-(1H-pyrazol-1-yl)benzamide]
19 | 2500 | 23 | CN(C(=O)c1c(F)cccc1F)[C@H]1CCC[C@@H]1Nc1nc2ccc(F)cc2s1 [Example 76, 2,6-Difluoro-N-[(1S,2S)-2-[(6-fluoro-1,3-benzothiazol-2-yl)amino]cyclopentyl]-N-methylbenzamide]
20 | 1600 | 25 | COc1ccccc1C(=O)N(C)[C@H]1CCC[C@@H]1Nc1nc2ccc(F)cc2s1 [Example 77, N-[(1S,2S)-2-[(6-Fluoro-1,3-benzothiazol-2-yl)amino]cyclopentyl]-2-methoxy-N-methylbenzamide]
21 | 2400 | 20 | CN(C(=O)c1ccccc1Cl)[C@H]1CCC[C@@H]1Nc1nc2ccc(F)cc2s1 [Example 78, 2-Chloro-N-[(1S,2S)-2-[(6-fluoro-1,3-benzothiazol-2-yl)amino]cyclopentyl]-N-methylbenzamide]
22 | 1100 | 1 | CN(C(=O)c1ccccc1-n1cccn1)[C@H]1CCC[C@@H]1Nc1nc2ccc(F)cc2s1 [Example 79, N-[(1S,2S)-2-[(6-Fluoro-1,3-benzothiazol-2-yl)amino]cyclopentyl]-N-methyl-2-(1H-pyrazol-1-yl)benzamide]
23 | 650 | 1 | CN(C(=O)c1ccccc1-n1nccn1)[C@H]1CCC[C@@H]1Nc1nc2ccc(F)cc2s1 [Example 80, N-[(1S,2S)-2-[(6-Fluoro-1,3-benzothiazol-2-yl)amino]cyclopentyl]-N-methyl-2-(2H-1,2,3-triazol-2-yl)benzamide]
24 | 840 | 1 | CN(C(=O)c1cc(F)ccc1-n1nccn1)[C@H]1CCC[C@@H]1Nc1nc2ccc(F)cc2s1 [Example 81, 5-Fluoro-N-[(1S,2S)-2-[(6-fluoro-1,3-benzothiazol-2-yl)amino]cyclopentyl]-N-methyl-2-(2H-1,2,3-triazol-2-yl)benzamide]
25 | 1200 | 1 | Cc1noc(-c2ccccc2C(=O)N(C)[C@H]2CCC[C@@H]2Nc2nc3ccc(F)cc3s2)n1 [Example 83, N-[(1S,2S)-2-[(6-Fluoro-1,3-benzothiazol-2-yl)amino]cyclopentyl]-N-methyl-2-(3-methyl-1,2,4-oxadiazol-5-yl)benzamide]
26 | > 10000 | 45 | COc1cccc(OC)c1C(=O)N[C@H]1CCC[C@@H]1Nc1nc2cc(F)ccc2s1 [Example 84, N-[(1S,2S)-2-[(5-Fluoro-1,3-benzothiazol-2-yl)amino]cyclopentyl]-2,6-dimethoxybenzamide]
27 | > 10000 | 23 | COc1cccc(OC)c1C(=O)N[C@H]1CCC[C@@H]1Nc1nc2cc(F)ccc2o1 [Example 85, N-[(1S,2S)-2-[(5-Fluoro-1,3-benzoxazol-2-yl)amino]cyclopentyl]-2,6-dimethoxybenzamide]
28 | > 10000 | 150 | O=C(N[C@H]1CCC[C@@H]1Nc1nc2ccccc2o1)c1ccccc1-n1nccn1 [Example 86, N-[(1S,2S)-2-[(1,3-Benzoxazol-2-yl)amino]cyclopentyl]-2-(2H-1,2,3-triazol-2-yl)benzamide]
29 | > 10000 | 21 | O=C(N[C@H]1CCC[C@@H]1Nc1nc2ccc(F)cc2o1)c1ccccc1-n1nccn1 [Example 87, N-[(1S,2S)-2-[(6-Fluoro-1,3-benzoxazol-2-yl)amino]cyclopentyl]-2-(2H-1,2,3-triazol-2-yl)benzamide]
30 | 4200 | 21 | O=C(N[C@H]1CCC[C@@H]1Nc1nc2cc(F)ccc2o1)c1ccccc1-n1nccn1 [Example 88, N-[(1S,2S)-2-[(5-Fluoro-1,3-benzoxazol-2-yl)amino]cyclopentyl]-2-(2H-1,2,3-triazol-2-yl)benzamide]
31 | 5400 | 27 | O=C(N[C@H]1CCC[C@@H]1Nc1nc2cc(Cl)ccc2s1)c1ccccc1-n1nccn1 [Example 89, N-[(1S,2S)-2-[(5-Chloro-1,3-benzothiazol-2-yl)amino]cyclopentyl]-2-(2H-1,2,3-triazol-2-yl)benzamide]

Source: patent publication US9493432B2, “Cyclopentylbenzamide derivatives and their use for the treatment of psychotic and cognitive disorders” (Takeda Pharmaceutical Company Limited, priority 2013, dated 2016)
